Data published in publication PMC6523531, “Mechanistic Studies on the Absorption-Enhancing Effects of Gemini Surfactant on the Intestinal Absorption of Poorly Absorbed Hydrophilic Drugs in Rats” (Pharmaceutics, 2019).

Tested on: Caco-2 cell monolayers
Assay: Transepithelial electrical resistance (TEER) of Caco-2 cell monolayers
Format: cell-based, Human
Experimental: Caco-2 cells (passage 45) were cultured in 175-cm^2 culture flask (Thermo Fisher Scientific™, Waltham, MA, USA). The culture medium consisted of DMEM containing 10% FBS, 0.1 mM MEM–NEAA, 2 mM glutamine, 100 U/mL penicillin, and 100 µg/mL streptomycin [30]. Cells were cultured in a humidified atmosphere of 5% CO2 at 37 °C. The culture medium was changed every two days. When the cultured Caco-2 cells became sub-confluent, they were seeded onto 12-mm Transwell® with 0.4-µm pore polycarbonate membrane inserts (Corning Inc., New York, NY, USA) at a density of 1 × 10^5 cells/insert. The transepithelial transport studies were performed when the transepithelial electrical resistance (TEER) values were more than 500 Ω·cm^2 (i.e., after 21 days). Briefly, after removing the incubation medium by aspiration, the apical and basal sides were washed thrice by Hank’s Balanced Salt (HBSS) solution (pH 7.4). The cells were incubated in HBSS (pH 6.0) for the apical side and HBSS (pH 7.4) for the basal side for 20 min at 37 °C. HBSS supplemented with 1 mg/mL glucose was used in all cell culture experiments. After removing the washing solution by aspiration, 500 µL of 10 µM CF in a HBSS (pH 6.0) solution with or without various concentrations (0.001% v/v, 0.01% v/v, 0.025% v/v, 0.05% v/v, and 0.1% v/v) of SLG-30, 0.1% (w/v) and 1% (w/v) NaGC or 0.05% (w/v) sodium laurate were added to the apical side at zero time, whereas precisely 1500 µL of HBSS (pH 7.4) was added to the basal side at 37 °C. The cells were kept at 37 °C and 5% CO2 and were continuously agitated on a shaker during the transport experiments.
The TEER values were measured by Millicell® (ERS-2 Volt-Ohm Meter, Billerica, MA, USA) at the predetermined times up to 24 h, and the initial values were considered as 100%. The samples from the basal side were withdrawn at predetermined time points up to 24 h. The samples were replaced with an equal volume of HBSS (pH 7.4). CF was determined as previously mentioned. The apparent permeability coefficients Papp (cm/s) for the transported CF was determined by the following equation: Papp=dXR/dt×1/A×1/C0 where Papp is the apparent permeability coefficient in centimeters per second, XR is the amount of CF in moles in the receptor side, dXR/dt is the flux across the monolayer, A is the diffusion area (i.e., in square centimeters), and C0 is the initial concentration of CF in the donor side in moles per milliliter.

`CCCCCCCCCCCC(=O)NC(CCC(=O)NCCCCC(NC(=O)CCC(NC(=O)CCCCCCCCCCC)C(=O)O)C(=O)O)C(=O)O` (stereo not drawn) [SLG-30, sodium dilauramidoglutamide lysine] was tested, and the TEER values (SLG-30 at all concentrations 0.001-0.1% (v/v), first hour) was “significant decrease”, the TEER recovery (higher concentrations of SLG-30, without removing SLG-30, up to 24 h) was “did not recover to the baseline” and the TEER recovery (lower concentrations of SLG-30, without removing SLG-30, up to 24 h) was “started to recover”.
